According to paper PMC11345841, “Exploring 2-Sulfonylpyrimidine Warheads as Acrylamide Surrogates for Targeted Covalent Inhibition: A BTK Story” (Journal of Medicinal Chemistry, 2024):
Where two headings read alike, the source gives them in different places.

Assays:
[1] = molecular target: T1, ABL1(F317L)-phosphorylated (Homo sapiens, UniProt P00519, F317L); assay: KINOMEscan ScanTK; assay type: binding
T1 construct: purchased Eurofins DiscoverX KINOMEscan (scanTK)

ABL1-phosphorylated = molecular target: T2, ABL1-phosphorylated (Homo sapiens, UniProt P00519); assay: KINOMEscan ScanTK; assay type: binding
T2 construct: purchased Eurofins DiscoverX KINOMEscan (scanTK)

ALK = molecular target: T3, ALK (Homo sapiens, UniProt Q9UM73); assay: KINOMEscan ScanTK; assay type: binding
T3 construct: purchased Eurofins DiscoverX KINOMEscan (scanTK)

CSF1R = molecular target: T4, CSF1R (Homo sapiens, UniProt P07333); assay: KINOMEscan ScanTK; assay type: binding
T4 construct: purchased Eurofins DiscoverX KINOMEscan (scanTK)
T4 sequence (P07333 20-972): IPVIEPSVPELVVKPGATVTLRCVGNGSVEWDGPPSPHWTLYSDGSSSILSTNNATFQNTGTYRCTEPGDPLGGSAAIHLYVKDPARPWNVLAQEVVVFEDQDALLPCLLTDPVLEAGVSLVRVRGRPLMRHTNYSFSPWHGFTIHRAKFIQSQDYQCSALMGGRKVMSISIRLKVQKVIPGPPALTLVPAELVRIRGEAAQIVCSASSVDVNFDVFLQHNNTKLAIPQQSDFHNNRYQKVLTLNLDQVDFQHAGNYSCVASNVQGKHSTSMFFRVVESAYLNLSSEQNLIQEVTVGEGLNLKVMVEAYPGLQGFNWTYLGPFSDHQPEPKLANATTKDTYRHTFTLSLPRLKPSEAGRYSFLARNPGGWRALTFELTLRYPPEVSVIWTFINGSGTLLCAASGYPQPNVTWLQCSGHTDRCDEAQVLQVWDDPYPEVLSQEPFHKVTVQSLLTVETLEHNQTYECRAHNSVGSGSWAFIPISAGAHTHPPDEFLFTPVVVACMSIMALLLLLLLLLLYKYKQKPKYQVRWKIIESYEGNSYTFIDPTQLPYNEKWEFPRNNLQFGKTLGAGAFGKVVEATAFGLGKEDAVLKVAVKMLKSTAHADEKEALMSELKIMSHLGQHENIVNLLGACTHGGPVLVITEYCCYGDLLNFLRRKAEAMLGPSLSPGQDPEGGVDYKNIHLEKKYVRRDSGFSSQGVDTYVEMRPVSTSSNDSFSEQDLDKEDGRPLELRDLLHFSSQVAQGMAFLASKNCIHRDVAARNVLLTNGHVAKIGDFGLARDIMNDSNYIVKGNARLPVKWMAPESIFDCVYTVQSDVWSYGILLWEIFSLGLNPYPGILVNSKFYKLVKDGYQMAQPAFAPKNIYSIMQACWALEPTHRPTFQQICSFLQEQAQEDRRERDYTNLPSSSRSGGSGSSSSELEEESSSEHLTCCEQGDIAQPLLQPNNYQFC

FLT3(D835H) = molecular target: T5, FLT3(D835H) (Homo sapiens, UniProt P36888, D835H); assay: KINOMEscan ScanTK; assay type: binding
T5 construct: purchased Eurofins DiscoverX KINOMEscan (scanTK)
T5 sequence (P36888 27-993 D835H): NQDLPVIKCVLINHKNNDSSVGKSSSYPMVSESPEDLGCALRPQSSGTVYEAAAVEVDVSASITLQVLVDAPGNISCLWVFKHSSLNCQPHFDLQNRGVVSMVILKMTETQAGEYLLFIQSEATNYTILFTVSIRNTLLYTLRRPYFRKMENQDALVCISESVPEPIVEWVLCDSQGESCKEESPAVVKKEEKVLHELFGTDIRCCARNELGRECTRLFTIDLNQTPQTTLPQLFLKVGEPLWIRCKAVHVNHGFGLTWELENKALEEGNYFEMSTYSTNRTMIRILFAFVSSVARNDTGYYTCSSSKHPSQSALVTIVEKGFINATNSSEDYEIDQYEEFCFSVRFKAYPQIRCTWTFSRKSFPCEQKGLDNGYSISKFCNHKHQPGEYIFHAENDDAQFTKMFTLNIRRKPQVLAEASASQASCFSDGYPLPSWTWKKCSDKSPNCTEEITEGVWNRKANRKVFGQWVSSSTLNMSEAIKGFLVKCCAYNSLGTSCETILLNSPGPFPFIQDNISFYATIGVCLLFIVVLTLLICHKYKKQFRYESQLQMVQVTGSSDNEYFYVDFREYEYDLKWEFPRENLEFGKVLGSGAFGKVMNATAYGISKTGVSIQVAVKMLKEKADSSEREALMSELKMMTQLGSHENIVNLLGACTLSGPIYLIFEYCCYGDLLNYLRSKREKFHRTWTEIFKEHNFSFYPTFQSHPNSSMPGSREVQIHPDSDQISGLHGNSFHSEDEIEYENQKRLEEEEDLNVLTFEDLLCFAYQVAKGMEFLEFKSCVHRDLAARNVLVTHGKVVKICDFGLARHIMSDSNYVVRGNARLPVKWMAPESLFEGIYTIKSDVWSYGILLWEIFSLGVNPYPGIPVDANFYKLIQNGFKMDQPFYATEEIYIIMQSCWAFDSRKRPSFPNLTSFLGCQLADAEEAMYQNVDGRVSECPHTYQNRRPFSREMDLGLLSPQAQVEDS

[2] = molecular target: T6, JAK1(JH1domain-catalytic) (Homo sapiens, UniProt P23458); assay: KINOMEscan ScanTK; assay type: binding
T6 construct: JAK1(JH1domain-catalytic); purchased Eurofins DiscoverX KINOMEscan (scanTK)
T6 sequence (P23458 875-1154 limits assumed): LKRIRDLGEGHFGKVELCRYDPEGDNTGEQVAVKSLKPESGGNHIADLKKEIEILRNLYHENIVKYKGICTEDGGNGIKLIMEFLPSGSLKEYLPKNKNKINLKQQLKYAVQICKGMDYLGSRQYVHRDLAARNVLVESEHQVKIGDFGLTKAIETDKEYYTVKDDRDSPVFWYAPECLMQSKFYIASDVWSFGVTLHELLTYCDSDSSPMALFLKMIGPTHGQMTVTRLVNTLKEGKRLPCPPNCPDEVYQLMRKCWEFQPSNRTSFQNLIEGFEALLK

[3] = molecular target: T7, JAK2(JH1domain-catalytic) (Homo sapiens, UniProt O60674); assay: KINOMEscan ScanTK; assay type: binding
T7 construct: JAK2(JH1domain-catalytic); purchased Eurofins DiscoverX KINOMEscan (scanTK)
T7 sequence (O60674 849-1132 limits assumed): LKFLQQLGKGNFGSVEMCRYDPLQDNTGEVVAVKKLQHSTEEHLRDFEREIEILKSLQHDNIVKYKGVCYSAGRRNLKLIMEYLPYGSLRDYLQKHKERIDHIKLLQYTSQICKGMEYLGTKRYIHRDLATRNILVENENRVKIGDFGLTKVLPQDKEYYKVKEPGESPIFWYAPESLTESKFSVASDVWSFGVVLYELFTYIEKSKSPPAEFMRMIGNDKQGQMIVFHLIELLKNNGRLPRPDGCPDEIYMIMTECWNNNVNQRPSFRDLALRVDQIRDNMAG

MET(M1250T) = molecular target: T8, MET(M1250T) (Homo sapiens, UniProt P08581, M1250T); assay: KINOMEscan ScanTK; assay type: binding
T8 construct: purchased Eurofins DiscoverX KINOMEscan (scanTK)
T8 sequence (P08581 25-1390 M1250T): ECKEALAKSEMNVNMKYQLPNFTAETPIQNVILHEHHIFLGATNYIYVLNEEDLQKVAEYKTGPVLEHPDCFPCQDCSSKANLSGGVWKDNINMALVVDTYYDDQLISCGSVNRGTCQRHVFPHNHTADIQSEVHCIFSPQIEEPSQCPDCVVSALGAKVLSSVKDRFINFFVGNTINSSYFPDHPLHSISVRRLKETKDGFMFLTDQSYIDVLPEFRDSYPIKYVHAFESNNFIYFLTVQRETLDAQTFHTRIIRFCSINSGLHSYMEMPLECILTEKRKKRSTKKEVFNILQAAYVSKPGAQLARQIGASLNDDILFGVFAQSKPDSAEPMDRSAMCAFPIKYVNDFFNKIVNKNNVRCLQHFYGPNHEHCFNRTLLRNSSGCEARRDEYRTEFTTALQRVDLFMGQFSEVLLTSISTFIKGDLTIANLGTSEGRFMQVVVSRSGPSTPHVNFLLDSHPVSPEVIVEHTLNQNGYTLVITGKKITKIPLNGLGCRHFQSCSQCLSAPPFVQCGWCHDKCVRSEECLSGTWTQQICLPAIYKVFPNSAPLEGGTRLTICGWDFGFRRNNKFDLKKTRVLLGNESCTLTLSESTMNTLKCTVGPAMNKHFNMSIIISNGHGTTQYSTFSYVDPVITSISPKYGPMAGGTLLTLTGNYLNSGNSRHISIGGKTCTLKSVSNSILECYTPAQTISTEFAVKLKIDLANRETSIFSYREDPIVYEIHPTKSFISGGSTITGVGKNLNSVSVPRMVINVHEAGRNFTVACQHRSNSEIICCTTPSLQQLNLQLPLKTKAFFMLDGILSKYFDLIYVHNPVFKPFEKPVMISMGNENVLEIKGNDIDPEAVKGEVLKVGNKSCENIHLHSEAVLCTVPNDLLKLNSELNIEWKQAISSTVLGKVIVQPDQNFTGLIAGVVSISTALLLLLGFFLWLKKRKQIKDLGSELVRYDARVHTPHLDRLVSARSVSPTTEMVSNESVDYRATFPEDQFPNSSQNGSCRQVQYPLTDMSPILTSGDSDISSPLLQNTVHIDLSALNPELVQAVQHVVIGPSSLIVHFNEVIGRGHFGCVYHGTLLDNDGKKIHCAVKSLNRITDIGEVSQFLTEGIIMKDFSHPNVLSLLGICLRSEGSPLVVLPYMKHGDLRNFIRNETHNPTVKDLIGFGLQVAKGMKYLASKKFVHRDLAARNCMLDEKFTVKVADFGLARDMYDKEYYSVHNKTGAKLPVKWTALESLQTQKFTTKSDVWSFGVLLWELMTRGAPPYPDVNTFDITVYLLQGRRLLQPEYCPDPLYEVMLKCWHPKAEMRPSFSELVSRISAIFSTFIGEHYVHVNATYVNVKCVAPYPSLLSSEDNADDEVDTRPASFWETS

MUSK = molecular target: T9, MUSK (Homo sapiens, UniProt O15146); assay: KINOMEscan ScanTK; assay type: binding
T9 construct: purchased Eurofins DiscoverX KINOMEscan (scanTK)
T9 sequence (O15146 24-869): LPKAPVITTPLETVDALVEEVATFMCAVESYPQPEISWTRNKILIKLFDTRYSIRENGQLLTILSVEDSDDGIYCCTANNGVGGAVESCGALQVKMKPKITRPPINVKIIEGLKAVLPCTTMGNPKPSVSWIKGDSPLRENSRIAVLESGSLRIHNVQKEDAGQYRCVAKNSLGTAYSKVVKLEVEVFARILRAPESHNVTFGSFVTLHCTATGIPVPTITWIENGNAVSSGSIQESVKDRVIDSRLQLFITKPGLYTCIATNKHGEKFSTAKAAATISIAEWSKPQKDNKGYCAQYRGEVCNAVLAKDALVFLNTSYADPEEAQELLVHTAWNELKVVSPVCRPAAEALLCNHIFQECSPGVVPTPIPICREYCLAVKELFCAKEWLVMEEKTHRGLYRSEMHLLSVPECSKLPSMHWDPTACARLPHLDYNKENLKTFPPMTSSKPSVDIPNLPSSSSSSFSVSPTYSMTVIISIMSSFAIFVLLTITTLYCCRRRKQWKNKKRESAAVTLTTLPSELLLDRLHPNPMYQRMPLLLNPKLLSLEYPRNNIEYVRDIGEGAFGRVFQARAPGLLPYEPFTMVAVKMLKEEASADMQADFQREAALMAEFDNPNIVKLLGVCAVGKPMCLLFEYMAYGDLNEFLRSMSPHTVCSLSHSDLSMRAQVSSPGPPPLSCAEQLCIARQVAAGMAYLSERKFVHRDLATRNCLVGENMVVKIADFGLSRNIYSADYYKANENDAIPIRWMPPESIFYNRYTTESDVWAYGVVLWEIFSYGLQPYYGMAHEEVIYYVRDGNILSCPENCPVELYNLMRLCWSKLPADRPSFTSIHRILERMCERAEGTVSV

RET = molecular target: T10, RET (Homo sapiens, UniProt P07949); assay: KINOMEscan ScanTK; assay type: binding
T10 construct: purchased Eurofins DiscoverX KINOMEscan (scanTK)

VEGFR2 = molecular target: T11, VEGFR2 (Homo sapiens, UniProt P35968); assay: KINOMEscan ScanTK; assay type: binding
T11 construct: purchased Eurofins DiscoverX KINOMEscan (scanTK)
T11 sequence (P35968 20-1356): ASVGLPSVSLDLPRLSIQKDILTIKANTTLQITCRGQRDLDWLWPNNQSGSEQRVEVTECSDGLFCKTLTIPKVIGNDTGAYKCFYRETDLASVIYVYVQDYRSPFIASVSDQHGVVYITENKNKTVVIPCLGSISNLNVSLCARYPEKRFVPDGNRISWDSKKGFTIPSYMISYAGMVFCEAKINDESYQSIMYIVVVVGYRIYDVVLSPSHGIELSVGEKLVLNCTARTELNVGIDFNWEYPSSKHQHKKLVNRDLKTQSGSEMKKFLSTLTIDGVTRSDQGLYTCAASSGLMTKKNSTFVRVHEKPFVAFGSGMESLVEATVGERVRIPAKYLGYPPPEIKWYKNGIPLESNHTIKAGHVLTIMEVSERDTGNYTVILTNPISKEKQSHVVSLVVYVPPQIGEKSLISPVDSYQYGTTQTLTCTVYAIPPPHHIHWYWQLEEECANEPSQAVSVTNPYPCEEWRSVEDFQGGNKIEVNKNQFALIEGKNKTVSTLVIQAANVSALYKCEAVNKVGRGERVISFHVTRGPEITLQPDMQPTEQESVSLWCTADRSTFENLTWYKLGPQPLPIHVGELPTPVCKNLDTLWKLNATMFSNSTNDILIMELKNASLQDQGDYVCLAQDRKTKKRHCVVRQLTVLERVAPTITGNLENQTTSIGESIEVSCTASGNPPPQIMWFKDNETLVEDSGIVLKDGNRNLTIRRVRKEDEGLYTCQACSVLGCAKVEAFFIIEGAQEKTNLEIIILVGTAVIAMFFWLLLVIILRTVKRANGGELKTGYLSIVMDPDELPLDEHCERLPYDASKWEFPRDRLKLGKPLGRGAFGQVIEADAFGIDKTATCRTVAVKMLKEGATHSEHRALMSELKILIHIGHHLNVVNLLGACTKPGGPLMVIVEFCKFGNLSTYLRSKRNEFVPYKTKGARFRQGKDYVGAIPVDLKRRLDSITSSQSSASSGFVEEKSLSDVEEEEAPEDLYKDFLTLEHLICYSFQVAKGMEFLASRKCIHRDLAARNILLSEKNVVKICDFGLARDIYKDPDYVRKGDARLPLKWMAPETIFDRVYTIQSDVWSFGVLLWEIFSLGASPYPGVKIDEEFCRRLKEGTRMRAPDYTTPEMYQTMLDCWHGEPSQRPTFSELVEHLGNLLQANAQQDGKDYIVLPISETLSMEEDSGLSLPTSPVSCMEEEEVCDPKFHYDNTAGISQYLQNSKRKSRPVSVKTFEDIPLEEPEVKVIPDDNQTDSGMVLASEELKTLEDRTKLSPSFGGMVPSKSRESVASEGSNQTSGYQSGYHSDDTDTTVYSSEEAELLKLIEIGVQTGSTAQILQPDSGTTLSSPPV

wild-type BTK [4] = molecular target: T12, wild-type BTK (Homo sapiens, UniProt Q06187); assay: NanoBRET target engagement assay in HEK293 cells; details: for NanoBRET IC50: HEK293 cells, 1 h treatment
T12 sequence (Q06187 whole entry): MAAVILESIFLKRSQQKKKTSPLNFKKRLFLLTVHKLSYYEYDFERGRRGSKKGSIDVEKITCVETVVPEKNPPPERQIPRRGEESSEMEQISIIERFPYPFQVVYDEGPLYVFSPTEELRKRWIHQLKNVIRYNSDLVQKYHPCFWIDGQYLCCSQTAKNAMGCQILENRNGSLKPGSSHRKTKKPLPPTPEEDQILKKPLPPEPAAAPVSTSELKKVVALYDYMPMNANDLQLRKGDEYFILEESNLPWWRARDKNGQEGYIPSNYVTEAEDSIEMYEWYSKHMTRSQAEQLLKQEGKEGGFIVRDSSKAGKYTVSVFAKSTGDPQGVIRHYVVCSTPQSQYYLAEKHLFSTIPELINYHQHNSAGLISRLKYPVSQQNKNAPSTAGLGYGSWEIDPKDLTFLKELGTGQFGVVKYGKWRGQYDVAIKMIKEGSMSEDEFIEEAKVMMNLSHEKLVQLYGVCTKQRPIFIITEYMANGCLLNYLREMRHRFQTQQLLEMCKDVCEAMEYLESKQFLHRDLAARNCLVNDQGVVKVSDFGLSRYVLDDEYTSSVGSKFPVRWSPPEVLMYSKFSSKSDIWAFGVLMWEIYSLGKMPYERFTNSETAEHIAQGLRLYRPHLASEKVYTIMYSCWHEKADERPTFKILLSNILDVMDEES

wild-type BTK [5] = molecular target: T12, wild-type BTK; assay: BTK in vitro activity assay (ADP-Glo, poly-Glu:Tyr phosphorylation, TCEP); details: for remaining activity at 0.1 µM: read-out: Remaining BTK activity (%)

Compound	remaining binding at 1 µM (ABL1-phosphorylated; @1000nM, read-out: %Control) [%]	remaining binding at 1 µM (ABL1-phosphorylated; read-out: %Control @1000nM) [%]	remaining binding at 1 µM (ALK; @1000nM, read-out: %Control) [%]	remaining binding at 1 µM (ALK; read-out: %Control @1000nM) [%]	remaining binding at 1 µM (CSF1R; @1000nM, read-out: %Control) [%]	remaining binding at 1 µM (CSF1R; read-out: %Control @1000nM) [%]	remaining binding at 1 µM (FLT3(D835H); @1000nM, read-out: %Control) [%]	remaining binding at 1 µM (FLT3(D835H); read-out: %Control @1000nM) [%]	remaining binding at 1 µM ([2]; @1000nM, read-out: %Control) [%]	remaining binding at 1 µM ([2]; read-out: %Control @1000nM) [%]	remaining binding at 1 µM ([3]; @1000nM, read-out: %Control) [%]	remaining binding at 1 µM ([3]; read-out: %Control @1000nM) [%]	remaining binding at 1 µM (MET(M1250T); @1000nM, read-out: %Control) [%]	remaining binding at 1 µM (MET(M1250T); read-out: %Control @1000nM) [%]	remaining binding at 1 µM (MUSK; @1000nM, read-out: %Control) [%]	remaining binding at 1 µM (MUSK; read-out: %Control @1000nM) [%]	remaining binding at 1 µM (RET; @1000nM, read-out: %Control) [%]	remaining binding at 1 µM (RET; read-out: %Control @1000nM) [%]	remaining binding at 1 µM (VEGFR2; @1000nM, read-out: %Control) [%]	remaining binding at 1 µM (VEGFR2; read-out: %Control @1000nM) [%]	other results
CNC(=O)c1cnc(S(C)(=O)=O)nc1N1CCCC(n2nc(-c3ccc(Oc4ccccc4)cc3)c3c(N)ncnc32)C1 (stereo not drawn) [Compound 8d, 4-(3-(4-Amino-3-(4-phenoxyphenyl)-1H-pyrazolo[3,4-d]pyrimidin-1-yl)piperidin-1-yl)-N-methyl-2-(methylsulfonyl)pyrimidine-5-carboxamide]	55	55	83	83	99	99	83	83	100	100	86	86	100	100	98	98	31	31	88	88	difference in %Control from compound Ib at 1 µM ([1]; @1000nM): 39%; remaining binding at 1 µM ([1]; @1000nM, read-out: %Control): 76%; remaining binding at 1 µM ([1]; read-out: %Control @1000nM): 76%; difference in %Control from compound Ib at 1 µM (ABL1-phosphorylated; @1000nM): -5%; difference in %Control versus compound Ib at 1 µM (ALK; @1000nM): -11%; difference in %Control versus compound Ib at 1 µM (CSF1R; @1000nM): 19%; difference in %Control from compound Ib at 1 µM (FLT3(D835H); @1000nM): 47%; difference in %Control versus compound Ib at 1 µM ([2]; @1000nM): 6%; difference in %Control vs compound Ib at 1 µM ([3]; @1000nM): -14%; NanoBRET IC50 (wild-type BTK [4]): low to subnanomolar; IC50 (wild-type BTK [5]): 0.028 ± 0.006 µM; remaining activity at 0.1 µM (wild-type BTK [5]): 2 ± 0.5%
C=CC(=O)N1CCC[C@@H](n2nc(-c3ccc(Oc4ccccc4)cc3)c3c(N)ncnc32)C1 [Compound 1g, Ibrutinib, reference compound]	60	60	94	94	80	80	36	36	94	94	100	100	96	96	95	95	12	12	71	71	
CCOC(=O)c1cnc(S(C)(=O)=O)nc1N1CCC[C@@H](n2nc(-c3ccc(Oc4ccccc4)cc3)c3c(N)ncnc32)C1 [Compound 8c, Ethyl (R)-4-(3-(4-Amino-3-(4-phenoxyphenyl)-1H-pyrazolo[3,4-d]pyrimidin-1-yl)piperidin-1-yl)-2-(methylsulfonyl)pyrimidine-5-carboxylate]	57	57	69	69	96	96	96	96	100	100	83	83	96	96	73	73	84	84	94	94	difference in %Control from compound Ib at 1 µM ([1]; @1000nM): 49%; remaining binding at 1 µM ([1]; @1000nM, read-out: %Control): 86%; remaining binding at 1 µM ([1]; read-out: %Control @1000nM): 86%; difference in %Control from compound Ib at 1 µM (ABL1-phosphorylated; @1000nM): -3%; difference in %Control versus compound Ib at 1 µM (ALK; @1000nM): -25%; difference in %Control versus compound Ib at 1 µM (CSF1R; @1000nM): 16%; difference in %Control from compound Ib at 1 µM (FLT3(D835H); @1000nM): 60%; difference in %Control versus compound Ib at 1 µM ([2]; @1000nM): 6%; difference in %Control vs compound Ib at 1 µM ([3]; @1000nM): -17%
Cc1cnc(S(C)(=O)=O)nc1N1CCCC(n2nc(-c3ccc(Oc4ccccc4)cc3)c3c(N)ncnc32)C1 (stereo not drawn) [Compound 8a, 1-(1-(5-Methyl-2-(methylsulfonyl)pyrimidin-4-yl)piperidin-3-yl)-3-(4-phenoxyphenyl)-1H-pyrazolo[3,4-d]pyrimidin-4-amine]	80	80	80	80	92	92	68	68	94	94	87	87	88	88	88	88	56	56	90	90	difference in %Control from compound Ib at 1 µM ([1]; @1000nM): 15%; remaining binding at 1 µM ([1]; @1000nM, read-out: %Control): 52%; remaining binding at 1 µM ([1]; read-out: %Control @1000nM): 52%; difference in %Control from compound Ib at 1 µM (ABL1-phosphorylated; @1000nM): 20%; difference in %Control versus compound Ib at 1 µM (ALK; @1000nM): -14%; difference in %Control versus compound Ib at 1 µM (CSF1R; @1000nM): 12%; difference in %Control from compound Ib at 1 µM (FLT3(D835H); @1000nM): 32%; difference in %Control versus compound Ib at 1 µM ([2]; @1000nM): 0%; difference in %Control vs compound Ib at 1 µM ([3]; @1000nM): -13%; IC50 (wild-type BTK [4]): 0.008 ± 0.009 µM; NanoBRET IC50 (wild-type BTK [4]): low to subnanomolar; IC50 (wild-type BTK [5]): 0.024 ± 0.002 µM; remaining activity at 0.1 µM (wild-type BTK [5]): 4 ± 1%
